Each compound was assayed against T1, rat 5-HT7a receptor (Rattus norvegicus, UniProt P32305) (assay: 5-HT7 receptor radioligand binding ([3H]5-CT, membranes of transfected HEK-293 cells)). Details: rat 5-HT7a in HEK-293 membranes, 1 nM [3H]5-CT.
T1 construct: expressed in transfected cells
T1 sequence (P32305 whole entry): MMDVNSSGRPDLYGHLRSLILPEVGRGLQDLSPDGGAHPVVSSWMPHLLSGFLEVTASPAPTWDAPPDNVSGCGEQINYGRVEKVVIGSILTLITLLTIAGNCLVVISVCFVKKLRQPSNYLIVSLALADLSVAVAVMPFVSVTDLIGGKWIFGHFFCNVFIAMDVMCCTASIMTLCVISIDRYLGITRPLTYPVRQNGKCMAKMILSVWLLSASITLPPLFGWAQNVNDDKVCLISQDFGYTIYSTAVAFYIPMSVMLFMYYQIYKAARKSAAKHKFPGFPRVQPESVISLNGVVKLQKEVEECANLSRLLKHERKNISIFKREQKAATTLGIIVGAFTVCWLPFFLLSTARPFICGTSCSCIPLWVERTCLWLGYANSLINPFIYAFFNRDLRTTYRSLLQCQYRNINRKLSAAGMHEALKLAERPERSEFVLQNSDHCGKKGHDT

Ki [µM] | SMILES
0.12 | O=[N+]([O-])c1ccc(-c2cn(Cc3ccccc3)c3c2CNCC3)cc1 [Example 1, 1-Benzyl-3-(4-nitro-phenyl)-4,5,6,7-tetrahydro-1H-pyrrolo[3,2-c]pyridine]
0.07 | Cc1c(-c2ccccc2)c2c(n1Cc1ccccc1)CCNC2 [Example 17, 1-Benzyl-2-methyl-3-phenyl-4,5,6,7-tetrahydro-1H-pyrrolo[3,2-c]pyridine]
0.025 | Cc1ccc(-c2cn(Cc3ccccc3)c3c2CNCC3)cc1 [Example 18, 1-Benzyl-3-p-tolyl-4,5,6,7-tetrahydro-1H-pyrrolo[3,2-c]pyridine]
0.045 | CCCCn1cc(-c2ccc(C)cc2)c2c1CCNC2 [Example 22, 1-Butyl-3-p-tolyl-4,5,6,7-tetrahydro-1H-pyrrolo[3,2-c]pyridine]
0.018 | c1ccc(Cn2cc(-c3ccccc3)c3c2CCNCC3)cc1 [Example 26, 1-Benzyl-3-phenyl-1,4,5,6,7,8-hexahydro-pyrrolo[2,3-d]azepine]
0.015 | CCCN1CCc2c(-c3ccccc3)nn(Cc3ccccc3)c2CC1 [Example 57, 1-Benzyl-3-phenyl-6-propyl-1,4,5,6,7,8-hexahydro-1,2,6-triaza-azulene]
0.033 | OCCCCCn1nc(-c2ccc(Cl)cc2)c2c1CCNCC2 [Example 87, 5-[3-(4-Chloro-phenyl)-5,6,7,8-tetrahydro-4H-1,2,6-triaza-azulen-1-yl]-pentan-1-ol]
0.04 | O=[N+]([O-])c1ccc(Cn2nc(-c3ccc(Cl)cc3)c3c2CCNCC3)cc1 [Example 98, 3-(4-Chloro-phenyl)-1-(4-nitro-benzyl)-1,4,5,6,7,8-hexahydro-1,2,6-triaza-azulene]
0.03 | CS(=O)(=O)Nc1ccc(Cn2nc(-c3ccccc3)c3c2CCNCC3)cc1 [Example 100, N-[4-(3-Phenyl-5,6,7,8-tetrahydro-4H-1,2,6-triaza-azulen-1-ylmethyl)-phenyl]-methanesulfonamide]
0.017 | C=CCCn1nc(-c2ccc(Cl)cc2)c2c1CCNCC2 [Example 111, 1-But-3-enyl-3-(4-chloro-phenyl)-1,4,5,6,7,8-hexahydro-1,2,6-triaza-azulene]
0.02 | Clc1ccc(-c2nn(CC3CCCCC3)c3c2CCNCC3)cc1 [Example 117, 3-(4-Chloro-phenyl)-1-cyclohexylmethyl-1,4,5,6,7,8-hexahydro-1,2,6-triaza-azulene]
0.039 | Clc1ccc(-c2nn(Cc3ccc4c(c3)OCO4)c3c2CCNCC3)cc1 [Example 119, 1-Benzo[1,3]dioxo1-5-ylmethyl-3-(4-chloro-phenyl)-1,4,5,6,7,8-hexahydro-1,2,6-triaza-azulene]
0.04 | Clc1ccc(-c2nn(CC3CCOCC3)c3c2CCNCC3)cc1 [Example 120, 3-(4-Chloro-phenyl)-1-(tetrahydro-pyran-4-ylmethyl)-1,4,5,6,7,8-hexahydro-1,2,6-triaza-azulene]
0.037 | Clc1ccc(-c2nn(-c3ccccc3)c3c2CCNCC3)cc1 [Example 172, 3-(4-Chloro-phenyl)-1-phenyl-1,4,5,6,7,8-hexahydro-1,2,6-triaza-azulene]
0.04 | Cc1ccccc1Cn1nc(-c2ccc(Cl)cc2)c2c1CCNCCC2 [Example 174, 3-(4-Chloro-phenyl)-1-(2-methyl-benzyl)-4,5,6,7,8,9-hexahydro-1H-1,2,7-triaza-cyclopentacyclooctene]
0.03 | CCC(CC)n1nc2c(c1-c1cccs1)CCNCC2 [Example 191, 2-(1-Ethyl-propyl)-3-thiophen-2-yl-2,4,5,6,7,8-hexahydro-1,2,6-triaza-azulene]
0.06 | Clc1ccc(-c2nn(C3CCCCCCC3)c3c2CCNCC3)cc1 [Example 255, 3-(4-Chloro-phenyl)-1-cyclooctyl-1,4,5,6,7,8-hexahydro-1,2,6-triaza-azulene]
